Data reported in PMC4703387, “Identification of the Calmodulin-Binding Domains of Fas Death Receptor” (PLoS ONE, 2016).
Where no end group is shown, it is not given here.

Tests used:
Ca^2+/CaM [1] = target: T1, Ca^2+/CaM (Homo sapiens, UniProt P0DP23); experiment: NMR titration (2D 1H-15N HSQC) of 15N-labeled Ca^2+/CaM with FasDD peptides; assay type: binding; settings: 1H-15N HSQC, 15N-Ca^2+/CaM 100–150 μM, 35°C, pH 7.0
T1 construct: made in house
Method: NMR data were collected at 35°C on a Bruker Avance II (700 MHz ^1H) spectrometer equipped with a cryogenic triple-resonance probe, processed with NMRPIPE [35] and analyzed with NMRVIEW [36] or CCPN Analysis. […] For signal assignments of the complexes, ^13C-, ^15N-, or ^13C-/^15N-labeled Ca^2+/CaM at ~400–500 μM was mixed with unlabeled Fas-Pep1 (in 100% DMSO-d6) or Fas-Pep2 at 1.5:1 peptide:Ca^2+/CaM. […] The backbone atom resonances of Ca^2+/CaM complexes with Fas-Pep1 and Fas-Pep2 were assigned using HNCA, HN(CO)CA, HNCACB, HNCO, HN(CO)CACB and ^15N-edited NOESY-HSQC and TOCSY-HSQC experiments. These experiments have been also collected on ^15N-, or ^13C-/^15N-labeled Fas-Pep2 in complex with unlabeled Ca^2+/CaM to confirm the α-helical character of Fas-Pep2 when bound to Ca^2+/CaM. The chemical shifts of Ca^2+/CaM-bound Fas-Pep2 were used to predict its order parameters and secondary structure content in TALOS+.[38] Combined ^1H-^15N chemical shift changes were calculated as ΔδHN = [(ΔδH)^2+(ΔδN/5)^2]^1/2, where ΔδH and ΔδN are the ^1H and ^15N chemical shift changes, respectively. Kd values were calculated by non-linear least-square fitting algorithm in Origin software (OriginLab, Northampton, MA) using the equation: ΔδHN=ΔδHN^max((Kd+L0+P0)−((Kd+L0+P0)^2−4*P0*L0)^0.5)/(2*P0) where ΔδHN^max is the chemical shift change between complex and free protein, L0 total concentration of ligand, and P0 total concentration of protein.
To gain insights into the molecular elements of Ca^2+/CaM–FasDD interaction and to identify the interaction interface, we have utilized NMR chemical shift perturbation (CSP) as detected in ^1H-^15N heteronuclear single quantum coherence (HSQC) spectra. These experiments not only allow for identification of residues involved in binding but can also provide information on the induced conformational changes within proteins. 2D ^1H-^15N HSQC data obtained for a uniformly ^15N-labeled Ca^2+/CaM upon titration with unlabeled Fas-Pep1 are shown in Fig 5. Addition of substoichiometric amounts of Fas-Pep1 (0.5:1 peptide:Ca^2+/CaM) led to a decrease in intensity for a significant number of ^1H-^15N resonances accompanied by appearance of several new signals, consistent with a slow exchange on the NMR scale between the free and bound forms of Ca^2+/CaM. A steady decrease in intensity for the original ^1H-^15N signals and increase in intensity of the new signals was clearly observed with further addition of Fas-Pep1. Spectral changes ceased upon completion of peptide titration at 1.5:1 Fas-Pep1:Ca^2+/CaM ratio when only the new set of signals was present (Fig 5). […]
Only residues 214–227 have been detected in the x-ray structure of Ca^2+/CaM bound to FasDD(214–238); no electron density has been detected for residues 228–238.[40] […]

Ca^2+/CaM [2] = target: T1, Ca^2+/CaM; experiment: 2D 1H-13C HMQC of 13C-labeled Ca^2+/CaM methionine methyl groups; assay type: binding
From the text: In the second approach, we assessed the role of hydrophobic surfaces located on the N- and C-terminal lobes of Ca^2+/CaM. These hydrophobic surfaces, which contribute to the flexibility and function of Ca^2+/CaM, are only formed when Ca^2+ is bound.[24] Ca^2+ binding induces a helical rearrangement, leading to exposure of eight methionine (Met) residues.[46, 47] Met residues are essential for the unique promiscuous binding behavior of Ca^2+/CaM to target proteins.[47] The methyl groups of Met residues are useful “NMR reporters” and widely used to probe for target binding.[34, 42, 47–49] Five Met residues (36, 51, 71, 72 and 76) are located in the N-terminal lobe and four (109, 124, 144, and 145) are located within the hydrophobic patch in the C-terminal lobe (Fig 8A). To assess whether the N- and C-terminal hydrophobic surfaces contribute to the binding of FasDD peptides, we collected 2D ^1H-^13C HMQC data on a uniformly ^13C-labeled Ca^2+/CaM sample as titrated with Fas-Pep1 or Fas-Pep2. Addition of a substoichiometric amount of Fas-Pep1 (0.5:1 peptide:Ca^2+/CaM) led to a decrease in the intensity of ^1H-^13C signals of M51, M71, M72, M109, M124 and M145 (Fig 8B, upper panel). Minimal or no chemical shift changes have been observed for signals corresponding to M76 and M144. Further addition of Fas-Pep1 led to appearance of new signals (Fig 8B). […]

Sequence: VQDTAEQKVQLLRNWHQLHGKKEAYDTLIKDLKKANLC [Fas-Pep2]
- NMR exchange regime with Ca^2+/CaM (Ca^2+/CaM [1]): slow exchange
- CSPs of Met resonances on binding (Ca^2+/CaM [2]): Notable CSPs are also observed in all of the ^1H-^13C resonances of Met residues
